Test results as given in patent publication US20190231751A1, “TREATMENT OF FIBROTIC DISORDERS WITH JUN N-TERMINAL KINASE INHIBITORS” (Imago Pharmaceuticals, Inc., priority 2016, published 2019).

What was measured:
[1] = tested on: bleomycin-induced lung fibrosis; assay: Mouse bleomycin-induced lung fibrosis model, therapeutic study; format: in vivo; conditions: 30 mg/kg b.i.d. oral gavage starting 7 days after bleomycin; male and female mice; 14 days
Protocol: Age and gender-matched wild type mice on the C57BL/6 background were utilized for this study, as outlined in Table 3: Mice were housed in a sterile barrier facility and given a single inhaled dose of 1.25 Units/kg pharmacologic grade bleomycin (Teva Pharmaceuticals, Israel) in a volume of 50 μl. Mice received twice daily administered IGP001, via oral gavage, on a b.i.d. schedule starting 7 days after bleomycin treatment in this therapeutic study. Mice were sacrificed at 14 days following the administration of bleomycin and assessed as appropriate for deposited collagen in the lungs using Masson's Trichrome stain.

CTGF mRNA = assay: TGF-β1-induced CTGF mRNA expression in HFL-1 cells; format: cell-based, human; conditions: compound 30 min before TGF-β1 1 ng/ml for 4 hours
Protocol: HFL-1 cells are created as described above in Example 3. HFL-1 cells are cultured with 0.1% DMSO (control vehicle), IGP001 or IGP002 for 30 min before stimulation with TGF-β1 (1 ng/ml) for 4 hours. Total RNA is extracted and hybridized with human CTGF probes, and messenger RNA levels are quantified by densitometry and optical density of CTGF mRNA band was corrected for G3PDH, and results are expressed as ratio (%) of control value (TGF-β1-stimulated HFL-1 cells).

JNK2 = JNK2 (Homo sapiens, UniProt P45984); assay: In vitro JNK2 inhibition (Table 1); format: biochemical
Protocol: In vitro assays for the determination of JNK activities are known in the art and exemplary assay formats are described herein.
IC50 values in Table 1 were determined using the procedures as described in U.S. Pat. No. 8,450,353.

ERK = assay: TGF-β1-induced ERK activation in human lung fibroblasts (Western blot); format: cell-based; conditions: HFL-1 cells; TGF-β1 1 ng/ml
Protocol: IGP001 and IGP002 are shown to affect TGF-β1-induced MAP kinase activities in human lung fibroblasts. Human fetal lung fibroblasts (HFL-1) (ATCC, Rockville, Md.) are cultured in Ham's F12K medium (American Type Culture Collection) supplemented with 50 U/ml penicillin G sodium, 50 μg/ml streptonycin sulfate (GIBCO BRL, Life Technologies, Inc., Rockville, Md.) and 10% fetal bovine serum (FBS; Equitech-Bio. Inc., Ingram, Tex.) and maintained in humidified 5% CO2 at 37° C. After reaching confluence, the serum content of the medium is reduced to 0.4% FBS for 24 h. The cells are then stimulated with 1 ng/ml TGF-β1 to produce CTGF.
To test the ability of IGP001 and IGP002 to suppress activation of JNK, HFL-1 cells are cultured with 0.1% DMSO (control vehicle), IGP001 or IGP002 at a concentration of […] for 30 minutes, followed by stimulation with TGF-β1 (1 ng/ml) for 30 minutes. Activities of JNK, p38 MAP kinase and ERK are determined by Western blotting whole cell lysates using antibodies specific for phosphorylated, activated forms of JNK, p38 MAP kinase, and ERK. Two identical experiments independently performed yielded similar results.

[2] = tested on: bleomycin-induced lung fibrosis; assay: Mouse bleomycin-induced lung fibrosis model, preventative study; format: in vivo; conditions: 10 mg/kg and 30 mg/kg b.i.d. oral gavage starting prior to bleomycin; 14 days
Protocol: Age and gender-matched wild type mice on the C57BL/6 background were utilized for this study, which is outlined in Table 1: Mice are housed in a sterile barrier facility at the Yale University School of Medicine and all proposed procedures are approved on existing mouse protocols. Mice were given a single inhaled dose of 1.25 Units/kg pharmacologic grade bleomycin (Teva Pharmaceuticals, Israel) in a volume of 50 μl. Mice received twice daily administered IGP001, via oral gavage, on a b.i.d. schedule starting prior to bleomycin treatment in this preventative study. Mice were sacrificed at 14 days following the administration of bleomycin and assessed as appropriate for the outcomes shown in Table 2: Briefly, lung inflammation was assessed by Bronchoalveolar lavage cell counts. Total soluble lung collagen will be quantified using Sircol Assay (Biocolour, Ireland). Formalin fixed, paraffin embedded mouse lung sections were stained with hematoxylin and eosin to assess gross morphology, morphometry, and Ashcroft scores and with Masson's trichrome stains to visualize collagen deposition.

[3] = tested on: thioacetamide-induced liver fibrosis; assay: Thioacetamide-induced rat model of liver fibrosis; format: in vivo; conditions: 10 mg/kg/day p.o.
Protocol: The antifibrotic effects of IGP001 and IGP002 are also evaluated in a thioacetamide-induced rat model of liver fibrosis. Study assessments include body and liver/kidney weight, liver function test, liver/kidney morphology and collagen deposition, fibrogenic gene and protein expression, and pharmacokinetic analyses.

[4] = tested on: myocardial ischemia-reperfusion; assay: Rat model of cardiac ischemia and remodeling; format: in vivo
Protocol: To study the effects of JNK inhibitors on prevention and/or progression of cardiac infarct size following myocardial infarction, a rat model of cardiac ischemia and remodeling was used. Briefly, adult male Sprague-Dawley rats (Charles River labs) are subjected to 45 minutes normothermic ischemia (left coronary artery occlusion) followed by 48 hours reperfusion. In rodents, myocardial infarct size stabilizes by 48 hour post-ischemia following which events relating to left ventricular (LV) dilatation and remodeling begin. At the onset of reperfusion, animals receive vehicle, IGP001 or IGP002 (10 mg/kg/day) p.o. Infarct size as a percentage of region-at-risk (RAR) is determined using standard Evans Blue and tetrazolium chloride staining of the hearts. Rats are next tested for ischemic ventricular remodeling and cardiac function following treatment with IGP001 and IGP002. Rats subjected to 45 minutes normothermic myocardial ischemia receive vehicle, IGP001 or IGP002 p.o. (10 mg/kg/day, p.o.; twice/day for remainder of study) at onset of reperfusion. Following a 48 hour treatment period, animals are subjected to echocardiography (Philips Envisor C Ultrasound) at week 1 reperfusion and sacrificed at week 8 reperfusion. Myocardial ischemia-reperfusion is associated with the hall mark indices of LV remodeling: increased end-diastolic volume or LV dilatation; increased end-systolic volume (i.e. reduced cardiac output); reduced fractional shortening and ejection fraction. […] To better mimic the clinical scenario of delayed start of treatment, rats are administered with vehicle, IGP001 or IGP002 (10 mg/kg/day) p.o. 3 hours after the onset of reperfusion following a 45 minute myocardial ischemia. Animals are sacrificed at 48 hours reperfusion.

[5] = 10 mg/kg/day p.o. for 48 hours following myocardial ischemia, week 1

Chain of JNK2 (P45984 whole entry, species assumed): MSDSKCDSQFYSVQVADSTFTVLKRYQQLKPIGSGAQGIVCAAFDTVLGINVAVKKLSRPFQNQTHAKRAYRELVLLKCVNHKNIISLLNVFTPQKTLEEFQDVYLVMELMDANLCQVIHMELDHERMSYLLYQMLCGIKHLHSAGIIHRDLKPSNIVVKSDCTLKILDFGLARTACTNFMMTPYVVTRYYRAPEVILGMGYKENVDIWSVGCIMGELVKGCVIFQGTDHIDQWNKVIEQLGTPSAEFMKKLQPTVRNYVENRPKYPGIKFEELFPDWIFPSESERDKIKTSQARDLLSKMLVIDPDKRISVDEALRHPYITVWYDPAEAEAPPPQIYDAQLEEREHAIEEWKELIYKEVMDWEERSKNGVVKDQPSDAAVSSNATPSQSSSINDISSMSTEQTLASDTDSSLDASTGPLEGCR

In the case of `O=C(Cn1c(=O)ccc2cc(C(F)(F)F)ccc21)Nc1scc(Br)c1-c1nnc[nH]1` [IGP001, N-(4-bromo-3-(1H-1,2,4-triazol-5-yl)thiophen-2-yl)-2-(2-oxo-6-(trifluoromethyl)quinolin-1(2H)-yl)acetamide], the “deposited collagen in the lungs (Masson's Trichrome stain)” value [1] is reported as “significantly reduced deposited collagen”, the “CTGF mRNA expression” value (CTGF mRNA) is reported as “suppressed CTGF mRNA expression by HFL-1 cells stimulated with TGF-β1 in a dose-dependent fashion” and the IC50 (JNK2) is reported as less than 0.1 µM. For the same compound, the “TGF-β1-induced ERK activation” value (ERK) was “but not p38 MAP Kinase or ERK Activation”, the “deposited collagen (Masson's trichrome stain)” value [2] was “reduced deposited collagen” and the “non-alcoholic fatty liver disease activity score” value ([3]; thioacetamide-induced NASH model) was “significantly reduce the non-alcoholic fatty liver disease activity score”. For the same compound, the collagen deposition ([3]; thioacetamide-induced model) was “significant reductions in collagen deposition”, the “collagen type 1 protein and mRNA expression” value ([3]; thioacetamide-induced model) was “significant reductions in collagen deposition, and collagen type 1 protein and mRNA expression” and the “size of infarction, delayed start of treatment” value ([4]; 10 mg/kg/day p.o. 3 hours after the onset of reperfusion, 48 hours reperfusion) was “statistically significant decrease in the size of infarction”. For the same compound, the “postischemic myocardial infarct size” value ([4]; 10 mg/kg/day p.o. at the onset of reperfusion, 48 hours reperfusion) was “significant reduction in postischemic myocardial infarct size”, the “LV remodeling (echocardiography)” value [4, 5] was “reduces adverse LV remodeling” and the “cardiac function (echocardiography)” value [4, 5] was “improved cardiac function”.
